Assay results from ChEMBL document CHEMBL1908284, “Rational use of in vitro P-glycoprotein assays in drug discovery” (J Pharmacol Exp Ther, 2001).
Starred links: 1 amine or outer side, 2 acyl side, 3 side chain; linkers in the order of their positions; H or OH if unused. Positions of bridges follow the written chain, without caps; N, C: chain ends. Non-standard residues stand in square brackets, D forms with d. Residues, ends and D or L forms follow the SMILES beside them. Chains are numbered I, II in the order given. Actinocin(9to1) = Cc1c2oc3c(C)ccc(C(=O)[*:1])c3nc-2c(C(=O)[*:2])c(N)c1=O; NMeV = CN[C@H](C(=O)O)C(C)C; Sar = CNCC(=O)O

Assays:
[1] = molecular target: T1, ATP-dependent translocase ABCB1 (Homo sapiens, UniProt P08183); details: spodoptera frugiperda, sf9, 20 µM;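 further: Compound-stimulated ATPase activity measured in membrane preparations of MDR1-expressing Sf9 cells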
[2] = molecular target: T2, ATP-dependent translocase ABCB1 (MDR1) (Homo sapiens, UniProt P08183); assay: in vitro; details: dog
[3] = molecular target: T2, ATP-dependent translocase ABCB1 (MDR1); assay: in vitro; details: dog; remark: listed apart in the source
[4] = molecular target: T2, ATP-dependent translocase ABCB1 (MDR1); assay: in vitro; details: dog; remark: listed apart in the source
[5] = molecular target: T1, ATP-dependent translocase ABCB1; assay: TP_TRANSPORTER: ATP hydrolysis in MDR1-expressing Sf9 cells; format: functional

T2 sequence (P08183 whole entry): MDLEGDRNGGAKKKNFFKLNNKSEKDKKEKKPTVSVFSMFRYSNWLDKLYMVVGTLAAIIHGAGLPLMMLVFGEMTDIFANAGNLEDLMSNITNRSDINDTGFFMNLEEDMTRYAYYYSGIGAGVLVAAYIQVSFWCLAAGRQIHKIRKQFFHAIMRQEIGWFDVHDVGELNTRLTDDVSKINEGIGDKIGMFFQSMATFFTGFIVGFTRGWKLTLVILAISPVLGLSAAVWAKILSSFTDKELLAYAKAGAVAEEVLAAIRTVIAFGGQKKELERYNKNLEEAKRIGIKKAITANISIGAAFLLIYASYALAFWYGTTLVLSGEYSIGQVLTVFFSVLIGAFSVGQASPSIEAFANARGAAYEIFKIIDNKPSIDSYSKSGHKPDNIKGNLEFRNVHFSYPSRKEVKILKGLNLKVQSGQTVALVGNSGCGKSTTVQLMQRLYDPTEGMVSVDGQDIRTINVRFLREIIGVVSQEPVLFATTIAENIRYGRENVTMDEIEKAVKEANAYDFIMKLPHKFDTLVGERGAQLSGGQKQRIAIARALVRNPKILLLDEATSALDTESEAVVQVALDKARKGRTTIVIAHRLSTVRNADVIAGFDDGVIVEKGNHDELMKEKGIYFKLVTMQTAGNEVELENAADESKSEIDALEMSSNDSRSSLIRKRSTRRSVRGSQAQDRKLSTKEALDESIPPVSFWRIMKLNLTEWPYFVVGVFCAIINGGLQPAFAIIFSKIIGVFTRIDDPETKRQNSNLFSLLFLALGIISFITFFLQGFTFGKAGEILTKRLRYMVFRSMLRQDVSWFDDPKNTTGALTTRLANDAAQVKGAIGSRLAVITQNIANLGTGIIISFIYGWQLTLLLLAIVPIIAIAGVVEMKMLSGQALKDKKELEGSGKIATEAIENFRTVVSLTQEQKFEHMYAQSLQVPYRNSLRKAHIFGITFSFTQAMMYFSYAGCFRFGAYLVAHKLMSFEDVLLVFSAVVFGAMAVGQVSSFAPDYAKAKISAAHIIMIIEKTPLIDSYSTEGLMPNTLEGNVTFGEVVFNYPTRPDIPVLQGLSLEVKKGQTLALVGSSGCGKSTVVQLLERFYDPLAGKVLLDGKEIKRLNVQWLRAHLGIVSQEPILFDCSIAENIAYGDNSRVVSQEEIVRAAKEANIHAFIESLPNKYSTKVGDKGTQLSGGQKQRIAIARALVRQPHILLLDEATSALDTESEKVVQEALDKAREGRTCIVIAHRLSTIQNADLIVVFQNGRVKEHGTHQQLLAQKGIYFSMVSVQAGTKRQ
T1 sequence (P08183 whole entry): as above

Structure (SMILES)	Ratio_ATPase activity [1]	Papp A→B ([2]; MDCK-MDR1, Papp)	Papp B→A ([3]; MDCK-MDR1, Papp)	efflux ratio ([4]; MDCK-MDR1, Ratio_Papp)	Activity [5]	Papp A→B ([2]; MDCK-MDR1)	Papp B→A ([3]; MDCK-MDR1)	efflux ratio ([4]; MDCK-MDR1)
CC(C)(C)NC(=O)[C@@H]1C[C@@H]2CCCC[C@@H]2CN1C[C@@H](O)[C@H](Cc1ccccc1)NC(=O)[C@H](CC(N)=O)NC(=O)c1ccc2ccccc2n1	7.11	0.301 ×10⁻⁶ cm/s	49.5 ×10⁻⁶ cm/s	165				
CNS(=O)(=O)Cc1ccc2[nH]cc(CCN(C)C)c2c1	1.23	0.953 ×10⁻⁶ cm/s	1.3 ×10⁻⁶ cm/s	1.37				
CN1CCC[C@@H]1Cc1c[nH]c2ccc(CCS(=O)(=O)c3ccccc3)cc12	2.22	1.84 ×10⁻⁶ cm/s	57.8 ×10⁻⁶ cm/s	31.5	substrate [+]			
CCOc1ccc(-c2nc3cc(-c4nc5cc(N6CCN(C)CC6)ccc5[nH]4)ccc3[nH]2)cc1	0.86					0.335 ×10⁻⁶ cm/s	2.6 ×10⁻⁶ cm/s	7.75
COc1cc2c(cc1OC)CN(CCc1ccc(NC(=O)c3cccc4c(=O)c5cccc(OC)c5[nH]c34)cc1)CC2		0.212 ×10⁻⁶ cm/s	1.86 ×10⁻⁶ cm/s					
CC(C)(C)NC(=O)[C@@H]1CN(Cc2cccnc2)CCN1C[C@@H](O)C[C@@H](Cc1ccccc1)C(=O)N[C@H]1c2ccccc2C[C@H]1O.O	9.59	0.869 ×10⁻⁶ cm/s	17.6 ×10⁻⁶ cm/s	20.3	substrate [+]			
Cc1c(O)cccc1C(=O)N[C@@H](CSc1ccccc1)[C@H](O)CN1C[C@H]2CCCC[C@H]2C[C@H]1C(=O)NC(C)(C)C	5.21	3.81 ×10⁻⁶ cm/s	33.8 ×10⁻⁶ cm/s	8.86				
Nc1nc(N)c2nc(-c3ccccc3)c(N)nc2n1	1.12	18.5 ×10⁻⁶ cm/s	18.4 ×10⁻⁶ cm/s	0.99				
CN(C)CCC(c1ccc(Cl)cc1)c1ccccn1 (racemic) [CHLORPHENIRAMINE]	0.97	56.2 ×10⁻⁶ cm/s	64.2 ×10⁻⁶ cm/s	1.14				
NC12CC3CC(CC(C3)C1)C2 [AMANTADINE]		18.6 ×10⁻⁶ cm/s	15.7 ×10⁻⁶ cm/s					
CCN(CC)CCCC(C)Nc1ccnc2cc(Cl)ccc12 (stereo not drawn) [CHLOROQUINE]	0.77	4.49 ×10⁻⁶ cm/s	17.2 ×10⁻⁶ cm/s	3.83	is not a substrate [-]			
CN(C)CCCN1c2ccccc2Sc2ccc(Cl)cc21 [CHLORPROMAZINE]	2.42	43.8 ×10⁻⁶ cm/s	47.7 ×10⁻⁶ cm/s	1.09				
CN/C(=N/CCSCc1nc[nH]c1C)NC#N [CIMETIDINE]	1.31					1.23 ×10⁻⁶ cm/s	2.69 ×10⁻⁶ cm/s	2.19
CC[C@H]1OC(=O)[C@H](C)[C@@H](O[C@H]2C[C@@](C)(OC)[C@@H](O)[C@H](C)O2)[C@H](C)[C@@H](O[C@@H]2O[C@H](C)C[C@H](N(C)C)[C@H]2O)[C@](C)(OC)C[C@@H](C)C(=O)[C@H](C)[C@@H](O)[C@]1(C)O [CLARITHROMYCIN]	3.55	1.08 ×10⁻⁶ cm/s	33.6 ×10⁻⁶ cm/s	31.3	substrate [+]			
COc1cc2c(c(OC)c1OC)-c1ccc(OC)c(=O)cc1[C@@H](NC(C)=O)CC2 [COLCHICINE]	1.23				is not a substrate [-]	1.79 ×10⁻⁶ cm/s	20.2 ×10⁻⁶ cm/s	11.3
Cc1c2oc3c(C)ccc(C(=O)N[C@@H]4C(=O)N[C@H](C(C)C)C(=O)N5CCC[C@H]5C(=O)N(C)CC(=O)N(C)[C@@H](C(C)C)C(=O)O[C@@H]4C)c3nc-2c(C(=O)N[C@@H]2C(=O)N[C@H](C(C)C)C(=O)N3CCC[C@H]3C(=O)N(C)CC(=O)N(C)[C@@H](C(C)C)C(=O)O[C@@H]2C)c(N)c1=O [DACTINOMYCIN] (I: T[dV]P[Sar][NMeV] / II: T[dV]P[Sar][NMeV]; ester I:1-I:C, II:1-II:C; linker I:N-II:N via Actinocin(9to1))	1.2	< 0.021 ×10⁻⁶ cm/s	1.6 ×10⁻⁶ cm/s	> 80	is not a substrate [-]			
COc1cccc2c1C(=O)c1c(O)c3c(c(O)c1C2=O)C[C@@](O)(C(C)=O)C[C@@H]3O[C@H]1C[C@H](N)[C@H](O)[C@H](C)O1 [DAUNORUBICIN]	1.69	0.547 ×10⁻⁶ cm/s	7.77 ×10⁻⁶ cm/s	14.2	is not a substrate [-]			
C[C@@H]1C[C@H]2[C@@H]3CCC4=CC(=O)C=C[C@]4(C)[C@@]3(F)[C@@H](O)C[C@]2(C)[C@@]1(O)C(=O)CO [DEXAMETHASONE]	1.15	4.35 ×10⁻⁶ cm/s	53.7 ×10⁻⁶ cm/s	12.4				
COc1ccc([C@@H]2Sc3ccccc3N(CCN(C)C)C(=O)[C@@H]2OC(C)=O)cc1 [DILTIAZEM]	2.64	41.3 ×10⁻⁶ cm/s	67.6 ×10⁻⁶ cm/s	1.64				
COc1cccc2c1C(=O)c1c(O)c3c(c(O)c1C2=O)C[C@@](O)(C(=O)CO)C[C@@H]3O[C@H]1C[C@H](N)[C@H](O)[C@H](C)O1 [DOXORUBICIN]	0.95	1.45 ×10⁻⁶ cm/s	0.973 ×10⁻⁶ cm/s	0.67				

Structure (SMILES)	Ratio_ATPase activity [1]	Papp A→B ([2]; MDCK-MDR1, Papp)	Papp B→A ([3]; MDCK-MDR1, Papp)	efflux ratio ([4]; MDCK-MDR1, Ratio_Papp)	Activity [5]	Papp A→B ([2]; MDCK-MDR1)	Papp B→A ([3]; MDCK-MDR1)	efflux ratio ([4]; MDCK-MDR1)
CC[C@H]1OC(=O)[C@H](C)[C@@H](O[C@H]2C[C@@](C)(OC)[C@@H](O)[C@H](C)O2)[C@H](C)[C@@H](O[C@@H]2O[C@H](C)C[C@H](N(C)C)[C@H]2O)[C@](C)(O)C[C@@H](C)C(=O)[C@H](C)[C@@H](O)[C@]1(C)O [ERYTHROMYCIN]		0.094 ×10⁻⁶ cm/s	1.35 ×10⁻⁶ cm/s					
COc1cc([C@@H]2c3cc4c(cc3[C@@H](O[C@@H]3O[C@@H]5CO[C@@H](C)O[C@H]5[C@H](O)[C@H]3O)[C@H]3COC(=O)[C@H]23)OCO4)cc(OC)c1O [ETOPOSIDE]		2.14 ×10⁻⁶ cm/s	6.06 ×10⁻⁶ cm/s					
CCC(C)n1ncn(-c2ccc(N3CCN(c4ccc(OCC5COC(Cn6cncn6)(c6ccc(Cl)cc6Cl)O5)cc4)CC3)cc2)c1=O (stereo not drawn) [ITRACONAZOLE]	1.2	57.1 ×10⁻⁶ cm/s	55.2 ×10⁻⁶ cm/s	0.97				
CN(C)C(=O)C(CCN1CCC(O)(c2ccc(Cl)cc2)CC1)(c1ccccc1)c1ccccc1 [LOPERAMIDE]	3.75					9.98 ×10⁻⁶ cm/s	77.6 ×10⁻⁶ cm/s	7.77
COC(=O)Nc1nc2ccc(C(=O)c3ccccc3)cc2[nH]1 [MEBENDAZOLE]	2	71.4 ×10⁻⁶ cm/s	64.8 ×10⁻⁶ cm/s	0.91	substrate [+]			
CN(Cc1cnc2nc(N)nc(N)c2n1)c1ccc(C(=O)N[C@@H](CCC(=O)O)C(=O)O)cc1 [METHOTREXATE]	0.91	1.05 ×10⁻⁶ cm/s	0.706 ×10⁻⁶ cm/s	0.67				
O=C1c2c(O)ccc(O)c2C(=O)c2c(NCCNCCO)ccc(NCCNCCO)c21 [MITOXANTRONE]		0.191 ×10⁻⁶ cm/s	0.644 ×10⁻⁶ cm/s					
CC[C@@]1([C@@H]2O[C@@H]([C@H]3O[C@@](O)(CO)[C@H](C)C[C@@H]3C)C[C@@H]2C)CC[C@H]([C@]2(C)CC[C@]3(C[C@H](O)[C@@H](C)[C@@H]([C@@H](C)[C@@H](OC)[C@H](C)C(=O)O)O3)O2)O1 [MONENSIN]	6.71					10.2 ×10⁻⁶ cm/s	29.4 ×10⁻⁶ cm/s	2.88
COC(=O)C1=C(C)NC(C)=C(C(=O)OC)C1c1ccccc1[N+](=O)[O-] [NIFEDIPINE]					substrate [+]			
CC[C@H]1C(=O)Nc2ccc(F)cc2N1C(=O)OC(C)C [OPAVIRALINE]	1.02	75.8 ×10⁻⁶ cm/s	72.6 ×10⁻⁶ cm/s	0.96				
CC(=O)Nc1ccc(OCC(O)CNC(C)C)cc1 (stereo not drawn) [PRACTOLOL]	1.42	1.24 ×10⁻⁶ cm/s	1.64 ×10⁻⁶ cm/s	1.32				
COc1cc2nc(N3CCN(C(=O)c4ccco4)CC3)nc(N)c2cc1OC [PRAZOSIN]	3.4	14.3 ×10⁻⁶ cm/s	66.1 ×10⁻⁶ cm/s	4.63				
CN(C)C(=O)Oc1ccc[n+](C)c1 [PYRIDOSTIGMINE]	0.89					1.02 ×10⁻⁶ cm/s	1.26 ×10⁻⁶ cm/s	1.24
C=C[C@H]1C[N@@]2CC[C@H]1C[C@@H]2[C@@H](O)c1ccnc2ccc(OC)cc12 [QUINIDINE]	2.54	3.64 ×10⁻⁶ cm/s	99 ×10⁻⁶ cm/s	27.2				
CNC(=C[N+](=O)[O-])NCCSCc1ccc(CN(C)C)o1 [RANITIDINE]	1.23	1.44 ×10⁻⁶ cm/s	1.95 ×10⁻⁶ cm/s	1.35				
COC(=O)[C@H]1[C@H]2C[C@@H]3c4[nH]c5cc(OC)ccc5c4CCN3C[C@H]2C[C@@H](OC(=O)c2cc(OC)c(OC)c(OC)c2)[C@@H]1OC [RESERPINE]	3.85	6.81 ×10⁻⁶ cm/s	25.3 ×10⁻⁶ cm/s	3.71				
CC(C)(C)c1ccc(C(O)CCCN2CCC(C(O)(c3ccccc3)c3ccccc3)CC2)cc1 (stereo not drawn) [TERFENADINE]		6.56 ×10⁻⁶ cm/s	30.6 ×10⁻⁶ cm/s					
C[C@]12CC[C@H]3[C@@H](CCC4=CC(=O)CC[C@@]43C)[C@@H]1CC[C@@H]2O [TESTOSTERONE]	1.32					91.6 ×10⁻⁶ cm/s	66.8 ×10⁻⁶ cm/s	0.73
CC[C@]1(O)C[C@@H]2CN(CCc3c([nH]c4ccccc34)[C@@](C(=O)OC)(c3cc4c(cc3OC)N(C)[C@H]3[C@@](O)(C(=O)OC)[C@H](OC(C)=O)[C@]5(CC)C=CCN6CC[C@]43[C@@H]65)C2)C1 [VINBLASTINE]	4.31	< 1 ×10⁻⁶ cm/s	23.2 ×10⁻⁶ cm/s	> 23				
COC(=O)[C@@H]1[C@H]2C[C@H]3c4[nH]c5ccccc5c4CCN3C[C@@H]2CC[C@@H]1O [YOHIMBINE]	1.05	42.9 ×10⁻⁶ cm/s	50.1 ×10⁻⁶ cm/s	1.17				
